{"source": "patent US9453226B2", "about": "“Protection of cells from Alu-RNA-induced degeneration and inhibitors for protecting cells” (UNIVERSITY OF KENTUCKY RESEARCH FOUNDATION, priority 2011, dated 2016)", "key": {"NLRP3": {"system": "NLRP3", "test": "NLRP3 knockdown in HEK293 cells transfected with an NLRP3 expression vector", "assay_type": "cell-based", "conditions": "compared to control siRNAs", "description": "(§1) Tissues or cells were homogenized in lysis buffer (10 mM Tris base, pH 7.4, 150 mM NaCl, 1 mM EDTA, 1 mM EGTA, 1% Triton X-100, 0.5% NP-40, protease and phosphatase inhibitor cocktail (Roche)). Protein concentrations were determined using a Bradford assay kit (Bio-Rad) with bovine serum albumin as a standard. Proteins (40-100 μg) were run on NuPAGE Bis-Tris gels (Invitrogen) and transferred to Immun-Blot PVDF membranes (Bio-Rad). Cells were scraped in hot Laemmli buffer (62.5 mM Tris base, pH 6.8, 2% SDS, 5% 2-Mercaptoethanol, 10% Glycerol, 0.01% Bromophenol Blue). Samples were boiled and run on 4-20% NuPAGE Tris-Glycine gels (Invitrogen). The transferred membranes were blocked for 1 h at RT and incubated with antibodies against human Caspase-1 (1:500; Invitrogen), mouse Caspase 1 (1:500; MBL), NLRP3 (1:1000; Enzo Life Sciences), PYCARD (1:1000, RayBiotech), phospho-IRAK1 (S376) (1:500, Thermo Scientific), phospho-IRAK4 (T345) (1:500, AbboMax), DICER1 (1:2,000; Bethyl), MyD88 (1:1,000; Cell Signaling), and mouse IL-18 (1:200; MBL) at 4° C. overnight. Protein loading was assessed by immunoblotting using an anti-Vinculin antibody (1:1,000; Sigma-Aldrich). The secondary antibodies were used (1:5,000) for 1 h at RT. The signal was visualized by enhanced chemiluminescence (ECL plus) and captured by VisionWorksLS Image Acquisition and Analysis software (Version 6.7.2, UVP, LLC)."}, "human RPE cells": {"system": "human RPE cells", "conditions": "human RPE cells transfected with pAlu", "description": "All cell cultures were maintained at 37° C. and 5% CO2. Primary mouse RPE cells were isolated as previously described (Yang et al., 2009) and grown in Dulbecco Modified Eagle Medium (DMEM) supplemented with 20% FBS and standard antibiotics concentrations. Primary human RPE cells were isolated as previously described (Yang et al., 2008) and maintained in DMEM supplemented with 10% FBS and antibiotics. HeLa cells were maintained in DMEM supplemented with 20% FBS and standard antibiotics concentrations. THP-1 cells were cultured in RPMI 1640 medium supplemented with 10% FBS and antibiotics.\nMTS assays were performed using the CellTiter 96 AQueous One Solution Cell Proliferation Assay (Promega) according to the manufacturer's instructions. For examining the cytoprotective effect of glycine in Alu RNA induced cell death, human RPE cells were transfected with pNull/pAlu. At 6 h post-transfection the cells were incubated with complete media containing glycine (5 mM) or vehicle, and cell viability was assessed after 24 h. Similarly, human RPE cells primed with LPS (5 μg/ml for 6 h) were treated with ATP (25 μM) in the presence of glycine containing media (5 mM). 30 min post ATP cell viability was assessed as described above.\nMTS assays were performed using the CellTiter 96 AQueous One Solution Cell Proliferation Assay (Promega) according to the manufacturer's instructions."}, "RPE": {"system": "RPE", "test": "Alu RNA-induced RPE degeneration in wild-type mice, inhibitors given intravitreously", "assay_type": "in vivo", "conditions": "subretinal Alu RNA 1 μg; peptide 2 μg intravitreous"}, "PYCARD": {"system": "PYCARD", "test": "PYCARD knockdown in human RPE cells", "assay_type": "cell-based", "conditions": "compared to control siRNAs", "description": "as §1"}, "NLRP3 and IL18 mRNAs": {"system": "NLRP3 and IL18 mRNAs", "test": "NLRP3 and IL18 mRNA in human RPE cells (real-time RT-PCR)", "assay_type": "cell-based", "description": "Transcript abundance was quantified by real-time RT-PCR using an Applied Biosystems 7900 HT Fast Real-Time PCR system by the 2^−ΔΔCt method.\n(§2) Total RNA was extracted from tissues or cells using Trizol reagent (Invitrogen) according to manufacturer's recommendations, DNase treated and reverse transcribed (QuantiTect, Qiagen). The RT products (cDNA) were amplified by real-time quantitative PCR (Applied Biosystems 7900 HT Fast Real-Time PCR system) with Power SYBR green Master Mix. Oligonucleotide primers specific for human IL1B (forward 5′-[…]-3′ and reverse 5′-[…]-3′), human IL18 (forward 5′-[…]-3′ and reverse 5′-[…]-3′), human NLRP3 (forward 5′-[…]-3′ and reverse 5′-[…]-3′), human PYCARD (forward 5′-[…]-3′ and reverse 5′-[…]-3′), human VDAC1 (forward 5′-[…]-3′ and reverse 5′-[…]-3′), human VDAC2 (forward 5′-[…]-3′ and reverse 5′-[…]-3′), human VDAC3 (forward 5′-[…]-3′ and reverse 5′-[…]-3′), human 18S rRNA (forward 5′-[…]-3′ and reverse 5′-[…]-3′), mouse Myd88 (forward 5′-[…]-3′ and reverse 5′-[…]-3′), mouse Nlrp3 (forward 5′-[…]-3′ and reverse 5′-[…]-3′), mouse Il18 (forward 5′-[…]-3′ and reverse 5′-[…]-3′), and mouse 18S rRNA (forward 5′-[…]-3′ and reverse 5′-[…]-3′) were used. The QPCR cycling conditions were 50° C. for 2 min, 95° C. for 10 min followed by 40 cycles of a two-step amplification program (95° C. for 15 s and 58° C. for 1 min). At the end of the amplification, melting curve analysis was applied using the dissociation protocol from the Sequence Detection system to exclude contamination with unspecific PCR products. […] For negative controls, no RT products were used as templates in the QPCR and verified by the absence of gel-detected bands. Relative expressions of target genes were determined by the 2^−ΔΔCt method."}, "VDAC1": {"system": "VDAC1", "test": "VDAC1 mRNA knockdown in human RPE cells", "assay_type": "cell-based", "conditions": "compared to control (Luc) siRNA", "description": "as §2, with “used.” for “used. The QPCR cycling conditions were 50° C. for 2 min, 95° C. for 10 min followed by 40 cycles of a two-step amplification program (95° C. for 15 s and 58° C. for 1 min). At the end of the amplification, melting curve analysis was applied using the dissociation protocol from the Sequence Detection system to exclude contamination with unspecific PCR products.”"}, "mitochondrial ROS": {"system": "mitochondrial ROS", "test": "Mitochondrial ROS in human RPE cells (MitoSOX Red)", "assay_type": "cell-based", "description": "Cellular ROS production was assessed using the ROS-specific probe 2′7′-dichlorodihydrofluorescin diacetate (H2DCFDA, BioChemica, Fluka). Mitochondrial ROS production was assessed using MitoSOX™ Red (Invitrogen). Sub-confluent human RPE cells were transfected with pNull or pAlu. After 24 h cells were loaded for 10 min at 37° C. with 10 μM H2DCFDA or MitoSOX™ Red (Invitrogen) mitochondrial superoxide indicator for live-cell imaging and washed twice with PBS. For H2DCFDA, fluorescence was recorded in 96-well plate using with a Synergy 4 reader (Biotek) using a FITC filter (excitation 485 nm, emission 538 nm). To visualize respiring mitochondria for colocalization with the mitochondrial ROS signal, after PBS wash cells were incubated with MitoTracker Deep Red™ (Invitrogen) for 30 min at 37° C. and then washed twice with PBS. The fluorescent signals were detected using Leica SP-5 or Zeiss Axio Observer Z1 microscopes. Phagosomal ROS production was assessed using the Fc-OXYBURST Green™ assay (Invitrogen). Sub-confluent human RPE cells were transfected with pNull or pAlu, or treated with PMA (0.5 μg/ml; Sigma-Aldrich). […] The total fluorescence from the cells was measured immediately after adding Fc-OXYBURST Green™ with a Synergy 4 reader (Biotek) using FITC filter (excitation 485 nm, emission 538 nm)."}, "VDAC3": {"system": "VDAC3", "test": "VDAC3 mRNA knockdown in human RPE cells", "assay_type": "cell-based", "conditions": "compared to control (Luc) siRNA", "description": "as §2, with “used.” for “used. The QPCR cycling conditions were 50° C. for 2 min, 95° C. for 10 min followed by 40 cycles of a two-step amplification program (95° C. for 15 s and 58° C. for 1 min). At the end of the amplification, melting curve analysis was applied using the dissociation protocol from the Sequence Detection system to exclude contamination with unspecific PCR products.”"}, "IRAK1/4 phosphorylation": {"system": "IRAK1/4 phosphorylation", "test": "IRAK1/4 phosphorylation in human RPE cells (Western blot)", "assay_type": "cell-based", "conditions": "human RPE cells treated with DICER1 antisense", "description": "(§3) Protein abundance was assessed by Western blot analysis using antibodies against Caspase-1 (1:500; Invitrogen), pIRAK1 (1:500; Thermo Scientific), pIRAK4 (1:500, Abbomax), PYCARD (1:200, Santa Cruz Biotechnology), NLRP3 (1:500, Enzo Life Sciences) and Vinculin (1:1,000; Sigma-Aldrich). Caspase-1 activity was visualized using Caspalux1 E1D2 (Oncolmmunin) according to manufacturer's instructions.\nas §1"}, "Caspase-1": {"molecular_target": "T1, Caspase-1 (Homo sapiens, UniProt P29466)", "T1 construct": "Primary human RPE cells were isolated as previously described; endogenous in cells; host or cells: primary human RPE cells", "T1 sequence (P29466 120-297 limits assumed)": "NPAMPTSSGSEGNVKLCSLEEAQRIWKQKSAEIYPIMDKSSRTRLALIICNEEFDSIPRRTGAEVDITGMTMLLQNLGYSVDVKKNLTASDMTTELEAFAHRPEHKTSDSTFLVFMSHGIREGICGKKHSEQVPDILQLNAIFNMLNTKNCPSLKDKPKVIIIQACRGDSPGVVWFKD", "T1 sequence (P29466 317-404 limits assumed)": "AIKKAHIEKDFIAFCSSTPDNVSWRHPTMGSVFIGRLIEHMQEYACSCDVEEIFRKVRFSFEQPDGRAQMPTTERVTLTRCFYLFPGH", "test": "Caspase-1 activation in human RPE cells (Western blot p20, Caspalux substrate cleavage)", "assay_type": "cell-based", "conditions": "compared to control AS", "description": "as §3, §1\nCaspase-1 activity. Caspase-1 activity was visualized by incubating cells with Caspalux1E1D2 reagent (Oncolmmunin) according to the manufacturer's instructions. Caspalux1E1D2 signal was quantified reading the fluorescence (excitation 552 nm, emission 580 nm) using a Synergy 4 reader (Biotek). Quantification of fluorescence from images was performed by converting images into grayscale in Adobe Photoshop CSS, and measuring the integrated density of black and white images using ImageJ software (NIH) (Bogdanovich et al., 2008)."}, "DICER1": {"system": "DICER1", "test": "DICER1 abundance after antisense treatment of human RPE cells", "assay_type": "cell-based", "description": "as §1"}, "VDAC2": {"system": "VDAC2", "test": "VDAC2 mRNA knockdown in human RPE cells", "assay_type": "cell-based", "conditions": "compared to control (Luc) siRNA", "description": "as §2, with “used.” for “used. The QPCR cycling conditions were 50° C. for 2 min, 95° C. for 10 min followed by 40 cycles of a two-step amplification program (95° C. for 15 s and 58° C. for 1 min). At the end of the amplification, melting curve analysis was applied using the dissociation protocol from the Sequence Detection system to exclude contamination with unspecific PCR products.”"}}, "note": "“Also recorded” adds a separate entry of the source. d = 2'-deoxy (DNA); r = 2'-OH (RNA)", "data": [{"substance": "5′-GUUUGACUAUCUGUUCUdTdT-3′ (GUUUGACUAUCUGUUCUTT; siRNA; sugars from the 5' end r17 d2, backbone not given here) [NLRP3 siRNA]", "values": [{"measurement": "abundance of NLRP3", "setting": "NLRP3", "value": "reduced"}, {"measurement": "pAlu-induced human RPE cell death / loss of cell viability", "setting": "human RPE cells", "value": "rescued"}]}, {"substance": "DRQIKIWFQNRRMKWKKRDVLPGTCVWSIASE", "values": [{"measurement": "Alu RNA-induced RPE degeneration", "setting": "RPE", "value": "blocked"}]}, {"substance": "5′-GAAGCUCUUCAGUUUCAdTdT-3′ (GAAGCUCUUCAGUUUCATT; siRNA; sugars from the 5' end r17 d2, backbone not given here) [PYCARD siRNA]", "values": [{"measurement": "abundance of PYCARD", "setting": "PYCARD", "value": "reduced"}, {"measurement": "pAlu-induced human RPE cell death / loss of cell viability", "setting": "human RPE cells", "value": "rescued"}]}, {"substance": "5′-CGGAAUAGCAGCCAAGUdTdT-3′ [VDAC1 siRNA]", "values": [{"measurement": "pAlu-induced NLRP3 and IL18 mRNA upregulation", "setting": "NLRP3 and IL18 mRNAs", "value": "prevent; also recorded: impaired"}, {"measurement": "abundance of VDAC1 mRNA", "setting": "VDAC1", "value": "reduced"}, {"measurement": "pAlu-induced mitochondrial ROS generation", "setting": "mitochondrial ROS", "value": "prevent; also recorded: impaired"}]}, {"substance": "5′-GCUUUAAUCGAUGGGAAdTdT-3′ [VDAC3 siRNA]", "values": [{"measurement": "abundance of VDAC3 mRNA", "setting": "VDAC3", "value": "reduced"}]}, {"substance": "5′-GCUGACCTTTTTGCTUCUCA-3′ [DICER1 AS]", "values": [{"measurement": "IRAK1 and IRAK4 phosphorylation", "setting": "IRAK1/4 phosphorylation", "value": "increases IRAK1 and IRAK4 phosphorylation"}, {"measurement": "cleavage activity of Caspase-1 (Caspalux)", "setting": "Caspase-1", "value": "increases cleavage activity of Caspase-1"}, {"measurement": "DICER1 abundance", "setting": "DICER1", "value": "reduces DICER1"}]}, {"substance": "5′-CCCUGGAGUUGGAGGCUdTdT-3′ [VDAC2 siRNA]", "values": [{"measurement": "pAlu-induced NLRP3 and IL18 mRNA upregulation", "setting": "NLRP3 and IL18 mRNAs", "value": "prevent; also recorded: impaired"}, {"measurement": "abundance of VDAC2 mRNA", "setting": "VDAC2", "value": "reduced"}, {"measurement": "pAlu-induced mitochondrial ROS generation", "setting": "mitochondrial ROS", "value": "prevent; also recorded: impaired"}]}]}
